Measurements published in patent publication US12685716B1 (priority 2022, dated 2026).

System: subject with AF/AFL
Experiment: Initiation of IV sotalol followed by first oral dose and same-day discharge (case Examples 1-12)
Assay type: in vivo, human
Procedure: • 1. After admission, obtain baseline parameters including QTc interval, HR, BP. • 2. […] Monitor QTc interval, HR, BP every 15 minutes during infusion. • 4. Administer first oral dose at the appropriate time based on renal function. For CrCl≥60 mL/min, oral administration time is planned 4 hours following the completion of IV infusion. For CrCl=30-59 mL/min, oral administration time is planned 6 hours following the completion of IV infusion. • 5. Obtain monitoring parameters including QTc interval, HR, BP at about 2 hours after oral administration. • 6. […] At arrival, baseline labs were obtained, and the subject was placed on continuous electrocardiogra monitoring. […] At arrival, baseline labs were obtained, and the subject was placed on continuous electrocardiography monitoring. […] At arrival, baseline labs were obtained, and the subject was placed on continuous electrocardiography monitoring. […] At arrival, baseline labs were obtained, and the subject was placed on continuous electrocardiography monitoring. […] At arrival, baseline labs were obtained, and the subject was placed on continuous electrocardiography monitoring. […] At arrival, baseline labs were obtained, and the subject was placed on continuous electrocardiography monitoring. […] At arrival, baseline labs were obtained, and the subject was placed on continuous electrocardiography monitoring. […] At arrival, baseline labs were obtained, and the subject was placed on continuous electrocardiography monitoring. […] At arrival, baseline labs were obtained, and the subject was placed on continuous electrocardiography monitoring. […] At arrival, baseline labs were obtained, and the subject was placed on continuous electrocardiography monitoring. […] At arrival, baseline labs were obtained, and the subject was placed on continuous electrocardiography monitoring. […] At arrival, baseline labs were obtained, and the subject was placed on continuous electrocardiography monitoring.

[1] = Example 1: IV 82.5 mg, DCCV, PO 80 mg 4 h after IV completion
[2] = Example 2: IV 82.5 mg, PO 80 mg 4 h after IV completion
[3] = Example 3: IV 75 mg, DCCV, PO 80 mg 5.5 h after IV completion
[4] = Example 4: IV 75 mg, DCCV, PO 80 mg 6.5 h after IV completion
[5] = Example 5: IV 75 mg, DCCV, PO 80 mg 5 h after IV completion
[6] = Example 6: IV 75 mg, DCCV, PO 80 mg 5.5 h after IV completion
[7] = Example 7: IV 60 mg, PO 120 mg 5 h after IV completion, second DCCV
[8] = Example 8: IV 82.5 mg, DCCV, PO 80 mg 4 h after IV completion
[9] = Example 9: IV 90 mg, DCCV, PO 120 mg 3.5 h after IV completion
[10] = Example 10: IV 75 mg, DCCV, PO 80 mg 6 h after IV completion
[11] = Example 11: IV 75 mg, DCCV, PO 80 mg 6 h after IV completion
[12] = Example 12: IV 75 mg, DCCV, PO 80 mg 6 h after IV completion

CC(C)NCC(O)c1ccc(NS(C)(=O)=O)cc1 (stereo not shown) [sotalol, d,1-sotalol]
converting the subject from AF to NSR: Rhythm conversion after IV sotalol infusion (Example 6: person, PVCs and paroxysmal AF, CrCl 41 mL/min, IV 75 mg over 1 h, then DCCV) | Rhythm conversion after IV sotalol infusion (Example 9: person, persistent AF, IV 90 mg over 1 h, then DCCV)
failed to convert: Rhythm conversion after IV sotalol infusion and first DCCV attempt (Example 7: person, persistent AF, IV 60 mg over 1 h, then first DCCV)
remained in NSR: Rhythm two hours after oral administration [1] | Rhythm two hours after oral administration [2] | Rhythm two hours after oral administration [3] | Rhythm two hours after oral administration [4] | Rhythm two hours after oral administration [5] | Rhythm two hours after oral administration [6] | Rhythm two hours after oral administration [7] | Rhythm two hours after oral administration [8] | Rhythm two hours after oral administration [9] | Rhythm two hours after oral administration [10] | Rhythm two hours after oral administration [11] | Rhythm two hours after oral administration [12]
within normal limits: Monitoring parameters (QTc, HR, BP) two hours after oral administration [1] | Monitoring parameters (QTc, HR, BP) two hours after oral administration [2] | Monitoring parameters including QTc two hours after oral administration [3] | Monitoring parameters including QTc two hours after oral administration [4] | Monitoring parameters including QTc two hours after oral administration [5] | Monitoring parameters including QTc two hours after oral administration [6] | Monitoring parameters (QTc, HR, BP) two hours after oral administration [7] | Monitoring parameters (QTc, HR, BP) two hours after oral administration [8] | Monitoring parameters (QTc, HR, BP) two hours after oral administration [9] | Monitoring parameters (QTc, HR, BP) two hours after oral administration [10] | Monitoring parameters (QTc, HR, BP) two hours after oral administration [11] | Monitoring parameters (QTc, HR, BP) two hours after oral administration [12]
converted from AF to NSR: Rhythm conversion after IV sotalol infusion (Example 1: person, persistent AF/AFL, IV 82.5 mg over 1 h, then DCCV) | Rhythm conversion after IV sotalol infusion (Example 2: person, paroxysmal AF and PVCs, IV 82.5 mg over 1 h, no DCCV) | Rhythm conversion after IV sotalol infusion (Example 3: person, persistent AF, CrCl 30 mL/min, IV 75 mg over 1 h, then DCCV) | Rhythm conversion after IV sotalol infusion (Example 4: person, persistent AF, CrCl 38 mL/min, IV 75 mg over 1 h, then DCCV) | Rhythm conversion after IV sotalol infusion (Example 5: person, persistent AF, CrCl 37 mL/min, IV 75 mg over 1 h, then DCCV) | Rhythm conversion after first oral dose and second DCCV (Example 7: IV 60 mg, PO 120 mg 5 h after IV completion, then second DCCV) | Rhythm conversion after IV sotalol infusion (Example 8: person, persistent AF, IV 82.5 mg over 1 h, then DCCV) | Rhythm conversion after IV sotalol infusion (Example 10: person, persistent AF, CrCl 56 mL/min, IV 75 mg over 1 h, then DCCV) | Rhythm conversion after IV sotalol infusion (Example 11: person, persistent AF, CrCl 50 mL/min, IV 75 mg over 1 h, then DCCV) | Rhythm conversion after IV sotalol infusion (Example 12: person, PVCs and persistent AF, CrCl 53 mL/min, IV 75 mg over 1 h, then DCCV)
